Assay results published in publication PMC7352507, “The Genome Analysis of Methylobacterium populi YC-XJ1 with Diverse Xenobiotics Biodegrading Capacity and Degradation Characteristics of Related Hydrolase” (International Journal of Molecular Sciences, 2020).

Assays:
DEPH1 = test system: T1, DEPH1; assay: residual substrate (HPLC or GC), Lineweaver-Burk; type: biochemical, Methylorubrum populi; settings: 10 mM PBS pH 7.0, 25 °C; 500 µg enzyme; DEP 0.2-2.4 mM
T1 construct: full length, 280 aa, 29,714 Da, no signal peptide; pET-32a(+) BamHI/HindIII, Trx/His/S tags kept (about 48 kDa on SDS-PAGE); E. coli

QPEH2 = test system: T2, QPEH2; assay: HPLC of residual substrate, Lineweaver-Burk; type: biochemical, Methylorubrum populi; settings: 10 mM PBS pH 7.0, 25 °C; 120 µg enzyme; QPE 0.2-2.4 mM
T2 construct: full length, 367 aa, 39,840 Da, no signal peptide; pET-32a(+) BamHI/HindIII, fused tags (His/S stated; about 45 kDa on SDS-PAGE) kept; E. coli

## CCOC(=O)c1ccccc1C(=O)OCC [diethyl phthalate]
DEPH1
  Km: 1040 ± 270 µM

## CCOC(=O)[C@@H](C)Oc1ccc(Oc2cnc3cc(Cl)ccc3n2)cc1 [quizalofop-p-ethyl]
QPEH2
  Km: 83.9 ± 30.3 µM
